Source: patent US20220257557A1, “PHARMACEUTICAL COMPOSITION FOR PREVENTING OR TREATING NEUROLOGICAL DISEASES” (GLACEUM INC., priority 2019, published 2022)

Assays:
[1] = molecular target: T1, rePON1 (PON1, paraoxonase 1) (Homo sapiens, UniProt P27169); test: Prevention of inhibition of PON1 activity by oxidized linolenic acid (TBBL substrate); type: biochemical; settings: for activity at 30 µM: 30 μM compound with rePON1 30 min, then oxidized linolenic acid 2 h, TBBL substrate, normal control 100, negative control 73.64; for extent to which inhibition of rePON1 activity was prevented, compared with glabridin: compound 30 μM vs glabridin 30 μM; for extent to which inhibition of rePON1 activity was prevented, compared with glabridin / inhibition of rePON1 activity by oxidized linolenic acid: result in words; for inhibition of rePON1 activity by oxidized linolenic acid: compound 30 μM
T1 construct: purchased Thermo Corp. RP-75678
Protocol: Based on the fact that the activity of PON1 is inhibited when PON1 is treated with oxidized linolenic acid, an experiment was conducted to confirm the prevention of inhibition of PON1 activity. The activity of PON1 was measured using TBBL (5-thiobutyl butyrolactones) as a substrate.
Specifically, after 9.6 μl of 50 mM Tris-HCl containing 1 mM CaCl2 was added to each of […] Eppendorf tubes, 0.2 μl of each of the compounds of Formulas III-1, IV-1, V-1, IV-2, V-2, II-1, IV-3, V-3, III-2, IV-4, V-4, II-2 and III-3 and glabridine was added to each tube so that the concentration thereof was 30 μM. 0.2 μl of rePON1 (RP-75678, Thermo Corp.) was added to each of the 12 tubes and mixed. Thereafter, each of the mixtures was allowed to react at room temperature for 30 minutes, and 0.5 μl of 1 mM oxidized linolenic acid (OX-LA) dissolved in DMSO was added thereto in order to inhibit rePON1 activity, followed by reaction at room temperature for 2 hours, thus preparing solutions (I).
25 μl of 0.5 mM DTNB dissolved in 50 mM Tris-HCl containing 1 mM CaCl2 was dispensed into each well of a 384-well plate, and then 10 μl of each of the solutions (I) was dispensed into each well, and 20 μl of 2 mM TBBL dissolved in 50 mM Tris-HCl containing 1 mM CaCl2 was added to each well, thus preparing samples. The absorbance of each of the samples at 420 nm was measured using a spectrometer (SpectraMax M2) at 37° C. every 2 minutes for 1 hour.
In addition, a negative control was prepared in the same manner as the above-described method, except that, for the preparation of a solution, 0.2 μl of DMSO was added instead of the compounds of Formulas III-1, IV-1, V-1, IV-2, V-2, II-1, IV-3, V-3, III-2, IV-4, V-4, II-2 and III-3 and glabridin. Furthermore, a normal control was prepared in the same manner as the above-described method, except that, for the preparation of a solution, 0.2 μl of DMSO was added instead of the above-described compounds and glabridin and that oxidized linolenic acid was not added. The absorbance of each of the negative control and the normal control was measured.
Using SoftMax Pro software, the activity of PON1 was calculated from the absorbance using the following Equation 1, and the results are shown in Table 1 below.
Activity=(absorbancesample−absorbanceblank)/(absorbancePON1−absorbanceblank)*100 [Equation 1]

[2] = system: BV2 cells; test: Transcription of NF-κB protein (p65, p50) into nucleus after LPS (Western blot); type: cell-based; settings: 3 h pretreatment (Table 3 amounts), LPS 1 μg/ml 1 h
Protocol: (§1) RAW264.7 cells or BV2 cells (5×10^5 cells/well) were dispensed in DMEM containing 10% heat-inactivated FBS, 10 IU/mL penicillin G, 100 μg/mL streptomycin and 2 mM L-glutamine and cultured in a 5% CO2 incubator at a temperature of 37° C.
(§2) The compound of Formula III-3, III-4, V-3, III-1, IV-1, V-1, IV-2, V-2 or II-2 was added to the RAW264.7 cells or BV2 cells, and the toxicities of the compounds were determined by MTT assay.
(§3) The pretreated cells of Experimental Example 4-1 were treated with 1 μg/ml of LPS for 1 hour, and then the level of transcription of NF-κB protein into the nucleus of each of p65 and p50 was analyzed through Western blot.

[3] = system: BV2 cells; test: iNOS and COX-2 expression after LPS (Western blot); type: cell-based; settings: 3 h pretreatment (Table 3 amounts), LPS 1 μg/ml 24 h
Protocol: as §1, §2
(§4) The pretreated cells of Experimental Example 4-1 were treated with 1 μg/ml of LPS for 24 hours, and then the expression levels of iNOS and COX-2 were observed through Western blot, and the production of NO and PGE2 was measured.

[4] = system: RAW264.7 cells; test: iNOS and COX-2 expression after LPS (Western blot); type: cell-based; settings: 3 h pretreatment (Table 3 amounts), LPS 1 μg/ml 24 h
Protocol: as §1, §2, §4

[5] = system: BV2 cells; test: IL-1β, IL-6 and TNF-α mRNA expression after LPS (RT-PCR); type: cell-based; settings: 3 h pretreatment (Table 3 amounts), LPS 1 μg/ml 6 h
Protocol: as §1, §2
(§5) The pretreated cells of Experimental Example 4-1 were treated with 1 μg/ml of LPS for 6 hours, and then the mRNA expression level of the cytokine IL-1β, IL-6 or TNF-α produced in the inflammatory response was analyzed using RT-PCR.

[6] = system: RAW264.7 cells; test: as above; type: cell-based; settings: 3 h pretreatment (Table 3 amounts), LPS 1 μg/ml 6 h
Protocol: as §1, §2, §5

[7] = system: BV2 cells; test: NO and PGE2 production after LPS; type: cell-based; settings: 3 h pretreatment (Table 3 amounts), LPS 1 μg/ml 24 h
Protocol: as §1, §2, §4

[8] = system: RAW264.7 cells; test: NO and PGE2 production after LPS; type: cell-based; settings: 3 h pretreatment (Table 3 amounts), LPS 1 μg/ml 24 h
Protocol: as §1, §2, §4

[9] = system: RAW264.7 cells; test: Transcription of NF-κB protein (p65, p50) into nucleus after LPS (Western blot); type: cell-based; settings: 3 h pretreatment (Table 3 amounts), LPS 1 μg/ml 1 h
Protocol: RAW264.7 cells or BV2 cells (5×10^5 cells/well) were dispensed in DMEM containing 10% heat-inactivated FBS, 10 IU/mL penicillin G, 100 μg/mL streptomycin and 2 mM L-glutamine and cultured in a 5% CO2 incubator at a temperature of 37° C. […]
as §3

T1 sequence (P27169 whole entry): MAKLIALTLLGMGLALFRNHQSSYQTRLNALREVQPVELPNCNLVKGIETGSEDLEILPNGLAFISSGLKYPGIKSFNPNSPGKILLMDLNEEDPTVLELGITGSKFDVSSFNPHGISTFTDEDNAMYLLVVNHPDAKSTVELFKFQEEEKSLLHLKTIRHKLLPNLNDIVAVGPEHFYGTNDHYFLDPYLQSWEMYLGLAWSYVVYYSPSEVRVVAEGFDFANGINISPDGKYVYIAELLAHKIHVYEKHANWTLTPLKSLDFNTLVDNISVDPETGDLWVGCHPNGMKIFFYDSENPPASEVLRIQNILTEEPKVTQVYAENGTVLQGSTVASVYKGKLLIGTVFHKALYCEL

SMILES | activity at 30 µM [1] | extent to which inhibition of rePON1 activity was prevented, compared with glabridin [1] | inhibition of rePON1 activity by oxidized linolenic acid [1] | level of transcription of NF-κB protein into the nucleus, p50 [2] | level of transcription of NF-κB protein into the nucleus, p65 [2] | expression level of COX-2 [3] | expression level of iNOS [3] | expression level of COX-2 [4] | expression level of iNOS [4] | mRNA expression level of IL-1β [5] | mRNA expression level of IL-6 [5] | mRNA expression level of TNF-α [5] | mRNA expression level of IL-1β [6] | mRNA expression level of IL-6 [6] | mRNA expression level of TNF-α [6] | production of NO [7] | production of PGE2 [7] | production of NO [8] | production of PGE2 [8] | level of transcription of NF-κB protein into the nucleus, p50 [9] | also measured
CC1(C)C=Cc2c(ccc3c2OCC(c2ccc(O)cc2O)=C3)O1 [Formula II-1, 4-(8,8-dimethyl-2,8-dihydropyrano[2,3-f]chromen-3-yl)benzene-1,3-diol] | 85.9% | greater | prevented |  |  |  |  |  |  |  |  |  |  |  |  |  |  |  |  |  | 
CC1(C)C=Cc2c(ccc3c2OC[C@@H](c2ccc(O)cc2O)C3)O1 [Glabridin, glabridin, reference compound] | 82.8% |  |  | did not decrease | did not decrease | did not decrease | did not decrease | did not decrease | did not decrease | did not decrease | did not decrease | did not decrease | did not decrease | did not decrease | did not decrease | did not decrease | did not decrease | did not decrease | did not decrease | did not decrease | level of transcription of NF-κB protein into the nucleus, p65 [9]: did not decrease
CCCOc1ccc(C2=Cc3ccc4c(c3OC2)C=CC(C)(C)O4)c(O)c1 [Formula II-2, 2-(8,8-dimethyl-2,8-dihydropyrano[2,3-f]chromen-3-yl)-5-propoxyphenol] |  | greater | prevented | concentration-dependently decreased | concentration-dependently decreased | concentration-dependently decreased | concentration-dependently decreased | concentration-dependently decreased | concentration-dependently decreased | concentration-dependently decreased | concentration-dependently decreased | concentration-dependently decreased | concentration-dependently decreased | concentration-dependently decreased | concentration-dependently decreased | concentration-dependently decreased | concentration-dependently decreased | concentration-dependently decreased | concentration-dependently decreased | concentration-dependently decreased | level of transcription of NF-κB protein into the nucleus, p65 [9]: concentration-dependently decreased
CCCc1ccc(C2COc3c(ccc4c3CCC(C)(C)O4)C2)c(O)c1 (stereo not drawn) [Formula III-4, 2-(8,8-dimethyl-2,3,4,8,9,10-hexahydropyrano[2,3-f]chromen-3-yl)-5-propylphenol] |  |  |  | concentration-dependently decreased | concentration-dependently decreased | concentration-dependently decreased | concentration-dependently decreased | concentration-dependently decreased | concentration-dependently decreased | concentration-dependently decreased | concentration-dependently decreased | concentration-dependently decreased | concentration-dependently decreased | concentration-dependently decreased | concentration-dependently decreased | concentration-dependently decreased | concentration-dependently decreased | concentration-dependently decreased | concentration-dependently decreased | concentration-dependently decreased | level of transcription of NF-κB protein into the nucleus, p65 [9]: concentration-dependently decreased
CCCc1ccc([C@@H]2COc3c(ccc4c3CCC(C)(C)O4)C2)c(O)c1 [Formula IV-3, (R)-2-(8,8-dimethyl-2,3,4,8,9,10-hexahydropyrano[2,3-f]chromen-3-yl)-5-propylphenol] | 90.6% | greater | prevented |  |  |  |  |  |  |  |  |  |  |  |  |  |  |  |  |  | 
CCOc1cc(O)ccc1C1COc2c(ccc3c2CCC(C)(C)O3)C1 (stereo not drawn) [Formula III-2, 4-(8,8-dimethyl-2,3,4,8,9,10-hexahydropyrano[2,3-f]chromen-3-yl)-3-ethoxyphenol] | 83.8% | greater | prevented |  |  |  |  |  |  |  |  |  |  |  |  |  |  |  |  |  | 
CCCCOc1ccc([C@@H]2COc3c(ccc4c3CCC(C)(C)O4)C2)c(O)c1 [Formula IV-4, (R)-2-(8,8-dimethyl-2,3,4,8,9,10-hexahydropyrano[2,3-f]chromen-3-yl)-5-butoxyphenol] | 94.1% | greater | prevented |  |  |  |  |  |  |  |  |  |  |  |  |  |  |  |  |  | 
CCCCOc1ccc([C@H]2COc3c(ccc4c3CCC(C)(C)O4)C2)c(O)c1 [Formula V-4, (S)-2-(8,8-dimethyl-2,3,4,8,9,10-hexahydropyrano[2,3-f]chromen-3-yl)-5-butoxyphenol] | 94.9% | greater | prevented |  |  |  |  |  |  |  |  |  |  |  |  |  |  |  |  |  | 
